Data from US20260078089A1, “BIOACTIVE PHYTOCHEMICALS IN ZIZYPHUS AND GUARANA” (Phytoquest Limited, priority 2018, published 2026).

Experiments:
N1Neu = N1Neu sialidase inhibition screen; assay type: biochemical; conditions: 2 mM Zanamivir; 1500 ug Zizyphus extract; 10 minute time point
Experimental: An initial screen of N1Neu inhibition using a variety of compounds and the commercially available sialidase (neuraminidase) inhibitor Zanamivir (which is sold in the pharmaceutical preparation “Relenza™” as a treatment for flu) was performed.
Sialidase assays were performed, reactions contained 0.1 mM MUNANA, pH 7.4 50 mM Tris, 5 mM CaCl2), 200 mM NaCl, plant extract or the control sialidase inhibitor Zanamivir at the concentrations indicated, or no putative inhibitor. N1Neu was present at 0.025 μg/ml in reactions. 50 μl of these reactions were quenched using 100 μl of 100 mM sodium carbonate buffer, pH 10.5, at 5 minutes and 10 minutes. The 10 minute time point was used to assess sialidase activity. Data shown represent the mean of one experiment, where each condition was repeated in triplicate. MU present in quenched reactions was quantified using TECAN M200 Infinite microplate reader at excitation 340 nm emission 430 nm, and expressed as the percentage of sialidase activity (MU fluorescence) relative to the no inhibitor condition.

[1] = system: sialidase of P. gingivalis homogenate; assay: Sialidase activity of homogenate of P. gingivalis; assay type: biochemical, Porphyromonas gingivalis; conditions: 2 mM Zanamivir; 1500 μg/ml Zizyphus
Experimental: (§1) MU release can be used to quantify sialidase activity.
(§2) Whole bacteria or purified sialidases were exposed to MUNANA, in the presence or absence of compound 1 (Example 3) or Zizyphus fruit 50% aqueous ethanol extract containing 1% of the N-methyl-prolines.
(§3) […] Reactions were stopped at 30 seconds and 60 seconds via addition of ph 10.5 60 mM sodium carbonate buffer. Release of fluorogenic MU was quantified by measuring fluorescence emission at 450 nm, excitation 350 nm. Percentage sialidase activity was expressed as the change in fluorescence between 30 seconds and 60 seconds compared to that of a reaction without inhibitor. Reactions were carried out in triplicate.

[2] = system: sialidase of T. forsythia homogenate; assay: Sialidase activity of homogenate of T. forsythia; assay type: biochemical, Tannerella forsythia; conditions: 2 mM Zanamivir; 1500 μg/ml Zizyphus
Experimental: as §1, §2, §3

CC(=O)N[C@H]1[C@H]([C@H](O)[C@H](O)CO)OC(C(=O)O)=C[C@@H]1N=C(N)N [Zanamivir]
% inhibition (N1Neu): 100%
% inhibition [1]: 51%
% inhibition [2]: 22%
